Experimental data reported in patent US20220193171A1, “PHARMACEUTICAL COMPOSITION COMPRISING MIXTURE EXTRACT OF COPTIS RHIZOME AND SCHIZONEPETA TENUIFOLIA AS ACTIVE INGREDIENT FOR PREVENTION OR TREATMENT OF INFLAMMATORY BOWEL DISEASE” (HELIXMITH CO., LTD, priority 2019, published 2022).

Assays:
[1] = system: DSS-induced enteritis model; test: Effects of single herbal extracts in DSS-induced enteritis model (Example 2); format: in vivo, mice (C57BL/6); conditions: 5-ASA 25 mg/kg orally once/day for 14 days; 2.5% DSS 5 days
Description: After 8-week-old male mice (C57BL/6) were acclimated for one week or longer, the mice were classified into: a normal group; a DSS and distilled water administration group in which Dextran Sulfate Sodium (DSS; 36,000-50,000 MW, MP Biomedicals, USA) was administered to induce ulcerative colitis and then distilled water was administered (negative control); a DSS and 5-aminosalicylic acid (5-ASA; Tokyo Chemical Industry Co., Japan) administration group (positive control group); and groups in which DSS and respective single herbal extracts prepared in Example 1 were administered (experimental groups).
(§1) The DSS-induced enteritis model has been known to show similar morphological changes and symptoms to human ulcerative colitis. The mice were fed 100 mL of DSS diluted in drinking water to 2.5%, which was then changed every two days. After the induction by DSS for 5 days, drinking water was changed.
5-ASA, used as a drug for the positive control group, was diluted in drinking water to 25 mg/kg, and administered orally once/day for 14 days from the start date of the experiment. Each single herbal extract was orally administered at a dose of 100 mg/kg once/day for 14 days from the start date of the experiment.
The mice of each group were weighed to calculate weight loss rates, and the feces state and the presence of bloody feces were checked, every day after the start of the experiment. Scoring was conducted for the three indicators according to the standards in Table 2 below.
Disease activity index (DAI), which is the sum calculated according to the scoring standards on Table 2 above, is shown in Table 3 below and FIG. 1.
On the last day of the experiment, the mice were sacrificed with carbon dioxide gas, and the colon site was excised. The colon length was measured from the excised colon, and then the state of the intestinal mucosa was investigated by incision in the longitudinal direction.
The histological colitis score was calculated by measuring the lengths of the mucosal ulcer site and the damaged mucosal layer in the colon tissue and averaging the values.

[2] = system: DNBS-induced enteritis model; test: Effects of single herbal extracts on DNBS-induced enteritis model (Example 3); format: in vivo, mice (C57BL/6); conditions: 5-ASA 25 mg/kg orally once/day for 5 days; DNBS rectal
Description: After 8-week-old male mice (C57BL/6) were acclimated for one week or longer, the mice were classified into: a normal group; a DNBS and distilled water administration group in which dinitrobenzene sulfonic acid (DNBS; Sigma-Aldrich, USA) was administered to induce inflammatory bowel disease and then distilled water was administered (negative control); a DNBS and 5-ASA administration group (positive control group); and groups in which DNBS and extracts of 11 kinds of herbs (Terminaliae Fructus, Selaginellae Herba, Schizonepeta tenuifolia Briquet, Geranii Herba, Psoraleae Semen, Thujae Orientalis Folium, Coptis Rhizome, Galla Rhois, Ailanthi Radicis Cortex, Puerariae Radix, and Liriopis Tuber) selected in Example 2 (experimental groups).
The DNBS-induced enteritis model is known to be closely related with human Crohn's disease in that T cell-mediated immune response is induced. DNBS in 50% ethanol/distilled water at 40 mg/mL was prepared, and 0.1 mL was slowly injected into the rectum of the mouse by using a catheter. 5-ASA, used as a drug for the positive control group, was diluted in drinking water to 25 mg/kg, and administered orally once/day for 5 days from the start date of the experiment. […]
On the last day of the experiment, the mice were sacrificed with carbon dioxide gas, and the colon site was excised, and the colon length was measured.

DSS-induced colitis mice [3] = test: Effects of single herbal extracts with different concentration in DSS-induced colitis mice (Example 4); format: in vivo, mice (C57BL/6); conditions: 5-ASA 25 mg/kg orally; 2.5% DSS 6 days
Description: After 8-week-old male mice (C57BL/6) were acclimated for one week or longer, the mice were classified into: a normal group; a DSS and distilled water administration group (negative control); a DSS and 5-ASA administration group (positive control group); and groups in which DSS and extracts of four kinds of herbs (Coptis Rhizome, […] Herba, Schizonepeta tenuifolia Briquet, and […] Herba) selected in Example 1 (experimental groups). The mice were fed 100 mL of DSS diluted in drinking water to 2.5%, which was then changed every two days. To evaluate the effects of single herbal extracts with different concentrations, DSS was administered for a total of 6 days, and then drinking water was changed. 5-ASA was distilled in drinking water to 25 mg/kg and orally administered. Each single herbal extract was orally administered at doses of 10, 30, and 100 mg/kg once/day for 14 days from the start date of the experiment, and the body weight change, feces state, and the presence of bloody feces were checked every day. In addition, DAI scores were calculated based on the results of the body weight change, feces state, and the presence of bloody feces, and the results are shown in Table 9 below and FIG. 6.

DSS-induced colitis mice [4] = test: Comparison of single extracts and mixed extracts in DSS-induced colitis mice (Example 5); format: in vivo, mice (C57BL/6); conditions: 5-ASA 25 mg/kg orally; 2.5% DSS 5 days
Description: After 8-week-old male mice (C57BL/6) were acclimated for one week or longer, the mice were classified into: a normal group; a DSS administration group, a DSS and distilled water administration group (negative control); a DSS and 5-ASA administration group (positive control group); and a group administered DSS and Coptis Rhizome 100 mg/kg, a group administered DSS and Schizonepeta tenuifolia Briquet 10 mg/kg, and a group administered DSS, Coptis Rhizome 100 mg/kg, and Schizonepeta tenuifolia Briquet 10 mg/kg (mixed extract administration group). The mice were fed 100 mL of DSS diluted in drinking water to 2.5%, which was then changed every two days. After DSS administration for 5 days, drinking water was changed. 5-ASA, used as a drug for the positive control group, was diluted in drinking water to 25 mg/kg, and orally administered. Coptis Rhizome 100 mg/kg, Schizonepeta tenuifolia Briquet 10 mg/kg, and a 10:1 mixture of Coptis Rhizome and Schizonepeta tenuifolia Briquet at a dose of 110 mg/kg were orally administered once/day for 14 days, and the body weight change rate, feces state, and the presence of bloody feces were checked every day.

TNF-α = test: Quantitative PCR of TNF-α expression in colon of DSS-induced colitis mice (Example 6); format: in vivo, mouse; conditions: relative value vs normal group, GAPDH standard; colon RNA; 5-ASA 25 mg/kg orally
Description: (§2) RNA was isolated from the colon of the mice collected in Example 5 by using TRIzol (Invitrogen, USA). Thereafter, quantitative PCR through primers specific to the inflammatory factors TNF-α, IL-1β, IL-17, IL-23, CCL2, and MIP-2, and SYBR green (Takara, Japan) was performed using cDNA obtained by performing RT-PCR. The expression levels of RNA obtained therefrom were expressed as a relative change compared with the untreated group (normal group) by using GAPDH mRNA as the standard gene. The experimental results are shown in Tables 11 to 16 below and FIGS. 8 to 13.

IL-1β = test: Quantitative PCR of IL-1β expression in colon of DSS-induced colitis mice (Example 6); format: in vivo, mouse; conditions: relative value vs normal group, GAPDH standard; colon RNA; 5-ASA 25 mg/kg orally
Description: as §2

IL-17 = test: Quantitative PCR of IL-17 expression in colon of DSS-induced colitis mice (Example 6); format: in vivo, mouse; conditions: relative value vs normal group, GAPDH standard; colon RNA; 5-ASA 25 mg/kg orally
Description: as §2

IL-23 = test: Quantitative PCR of IL-23 expression in colon of DSS-induced colitis mice (Example 6); format: in vivo, mouse; conditions: relative value vs normal group, GAPDH standard; colon RNA; 5-ASA 25 mg/kg orally
Description: as §2

MIP-2 = test: Quantitative PCR of MIP-2 expression in colon of DSS-induced colitis mice (Example 6); format: in vivo, mouse; conditions: relative value vs normal group, GAPDH standard; colon RNA; 5-ASA 25 mg/kg orally
Description: as §2

CCL2 = test: Quantitative PCR of CCL2 expression in colon of DSS-induced colitis mice (Example 6); format: in vivo, mouse; conditions: relative value vs normal group, GAPDH standard; colon RNA; 5-ASA 25 mg/kg orally
Description: as §2

[5] = system: DSS-induced enteritis model; test: Effects of single and mixed herbal extracts on DSS-induced enteritis model (Example 11); format: in vivo, mice (C57BL/6); conditions: 5-ASA 25 mg/kg orally once/day for 10 days; 2.5% DSS 5 days
Description: After 8-week-old male mice (C57BL/6) were acclimated for one week or longer, the mice were classified into: a normal group;
a DSS and distilled water administration group in which Dextran Sulfate Sodium (DSS; 36,000-50,000 MW, MP Biomedicals, USA) was administered to induce ulcerative colitis and then distilled water was administered (negative control); a DSS and 5-aminosalicylic acid (5-ASA; Tokyo Chemical Industry Co., Japan) administration group (positive control group); and groups in which together with DSS, Coptis Rhizome and Schizonepeta tenuifolia Briquet extracts prepared in Example 1 and mixed herbal extracts prepared in Example 7 were administered (experimental groups).
as §1
5-ASA, used as a drug for the positive control group, was diluted in drinking water to 25 mg/kg, and administered orally once/day for 10 days from the start date of the experiment. Each mixed herbal extract was orally administered at a dose of 50 mg/kg once/day for 10 days from the start date of the experiment.
The mice of each group were weighed to calculate weight loss rates every day after the start of the experiment.
In addition, DAI scores were calculated based on the results of the body weight change, feces state, and the presence of bloody feces, and the results are shown in Table 23 below and FIG. 17.
On the last day of the experiment, the mice were sacrificed with carbon dioxide gas, and the colon site was excised.

Nc1ccc(O)c(C(=O)O)c1 [Positive control, 5-aminosalicylic acid]
Colon length (cm) [1]: 5.6 cm | DAI score of Day 10 [1]: 2.4 | Histological colitis score [1]: 1.00 | Colon length (cm) [2]: 7.10 cm | Survival rate (%) [2]: 60% | Body weight change rate for 14 days (%) (DSS-induced colitis mice [3]): −19.38% | DAI score of Day 10 (DSS-induced colitis mice [3]): 4.8 | DAI score of Day 10 (DSS-induced colitis mice [4]): 2.8 | TNF-α expression level (TNF-α): 2.16 | IL-1β expression level (IL-1β): 2.28 | IL-17 expression level (IL-17): 1.77 | IL-23 expression level (IL-23): 1.65 | MIP-2 expression level (MIP-2): 1.86 | CCL2 expression level (CCL2): 3.26 | Body weight change rate for 10 days (%) [5]: −11.66% | Colon length (cm) [5]: 7.04 cm | DAI score of DAY 10 [5]: 4.8
